Data as given in patent US20120060243A1, “Herbicide-Resistant AHAS-Mutants and Methods of Use” (priority 2008, published 2012).

Experiments:
Type in all cases: in vivo, Brassica napus
[1] = test system: BnCL131A1 (BN-02) (AHAS III A122T, S653N); assay: Field test herbicide injury, Minot; details: 200 g ai/ha
Source text: (§1) B. napus plants from the following spring oilseed rape lines: BN-02 (wild type), BN-T (wild type), BnCL131A1 in a BN-02 background genotype (AHAS III A122T S653N double mutant), BnCL120C7 in a BN-02 background genotype (BnAHASIII A122T), BnCL97 in a BN-02 background genotype (BnAHASIII S653N), PM1/PM2 in a BN-T background (two gene check: AHAS I S653N & AHAS III W574L), PM1 in a BN-T background (one gene check: AHAS I S653N) and PM2 in a BN-T background (one gene check: AHAS III W574L) were field tested at a site near Minot, N. Dak. Lines were planted in 5 m long single row plots and arranged in a two factorial split plot design with 3 repetitions and 4 treatments (0 g ai/ha imazamox, 50 g ai/ha imazamox, 100 g ai/ha imazamox and 200 g ai/ha imazamox). Plants were sprayed at the 2-4 leaf stage with the above mentioned imazamox treatments. The imazamox product (Beyond 120 g/L LC+0.25% (v/v) non-ionic surfactant) was diluted in 20 gallons per acre (or 200 liters/ha) and applied using a tractor mounted boom.
(§2) Herbicide injury was evaluated 15 days after treatment (DAT) on a per plot basis using a scale from 0 to 100%, where 0 was no injury and 100% was complete plant death.

[2] = test system: BnCL97 (BN-02) (AHASIII S653N); assay: Field test herbicide injury, Minot; details: 200 g ai/ha, 15 days after treatment, S653N single mutant BnCL97 (BN-02)
Source text: as §1, §2

[3] = test system: BNCL120C7 (BN-02) (AHASIII A122T); assay: Field test herbicide injury, Minot; details: 200 g ai/ha, 15 days after treatment, A122T single mutant BNCL120C7 (BN-02)
Source text: as §1, §2

Bn WT 1 = assay: Field trial crop phytotoxicity, Simcoe; details: 18 Days After Treatment, line Bn WT 1; for Mean Percent Crop Phytotoxicity (% Crop Injury): field, 2-4 leaf stage
Source text: Hand-crossed hybrids were produced in the greenhouse between two IMI-tolerant spring Brassica napus parental lines: “BnCL131A1” (homozygous for the A genome IMI-tolerant mutation AHASL1A-A122(At)T-S653(At)N) and “PM1PM2” (homozygous for the A genome AHAS-inhibitor tolerant mutation AHASL1A-W574(At)L (PM2) plus the C genome AHAS-inhibitor tolerant mutation AHASL1C-S653(At)N(PM1)). The resulting heterozygous hand-crossed hybrid line, “PM1PM2/BnCL131A 1” (heterozygous for the stacked mutations: AHASL1A-A122(At)T-S653(At)N, AHASL1A-W574(At)L (PM2), AHASL1C-S653(At)N(PM1)) was field tested together with lines each containing only one AHAS-inhibitor tolerant mutation (homozygous or heterozygous) and several spring Brassica napus checks.
The three repetition trial was conducted in Simcoe, N. Dak., and used a randomized split block design. The trial was designed to measure the percent phytotoxicity (% crop injury) of the different entries under 5 different imidazolinone herbicide treatment rates. Plants were sprayed at the 2-4 leaf stage at a volume of 100 liters/ha. The imidazolinone herbicide rates used were as follows (Imazamox=BEYOND™ 120 g/I LC (BAS 72001H); NIS=INDUCE™ 90 (90% non-ionic surfactant; Helena Chemical Co., Collierville, Tenn.):
Crop Injury Ratings were determined in the field by assessing each plot in the trial for the level of phytotoxicity (percent crop injury) on a scale from 0-100% at 18 days after treatment. Mean values for each entry across the three replications along with their statistical significance (ANOVA) are presented in Table 6 (Ho=homozygous; He=heterozygous). Each value presented in Table 6 is the mean of three replications.
The percent phytotoxicity (% crop injury) ratings were transposed into Herbicide Tolerance ratings by subtracting the percent crop injury rating (Table 6) for each line from 100% to obtain the percent herbicide tolerance (Table 7) (Ho=homozygous; He=heterozygous).

## COCc1cnc(C2=NC(C)(C(C)C)C(=O)N2)c(C(=O)O)c1 (stereo not shown) [imazamox]
[1]; field, 15 days after treatment, double mutant line BnCL131A1 (BN-02)
  amount of tolerance (100% minus crop injury): 62%
[1]; sum of tolerances of the two single mutant lines
  expected tolerance if additive (A122T plus S653N): 37%
[2]
  amount of tolerance (100% minus crop injury): 17%
[3]
  amount of tolerance (100% minus crop injury): 20%
Bn WT 1; 35 g ai/ha + 0.25% (v/v) NIS
  Mean Percent Crop Phytotoxicity (% Crop Injury): 85%
Bn WT 1; 35 g ai/ha
  Mean Percent Herbicide Tolerance (100% minus percent crop injury): 15.0%
Bn WT 1; 70 g ai/ha + 0.25% (v/v) NIS
  Mean Percent Crop Phytotoxicity (% Crop Injury): 96.67%
Bn WT 1; 70 g ai/ha
  Mean Percent Herbicide Tolerance (100% minus percent crop injury): 3.3%
Bn WT 1; 140 g ai/ha + 0.25% (v/v) NIS
  Mean Percent Crop Phytotoxicity (% Crop Injury): 100%
Bn WT 1; 140 g ai/ha
  Mean Percent Herbicide Tolerance (100% minus percent crop injury): 0.0%
Bn WT 1; 210 g ai/ha + 0.25% (v/v) NIS
  Mean Percent Crop Phytotoxicity (% Crop Injury): 98.33%
Bn WT 1; 210 g ai/ha
  Mean Percent Herbicide Tolerance (100% minus percent crop injury): 1.7%
Bn WT 1; mean over 0, 35, 70, 140, 210 g ai/ha (N 15)
  Mean Percent Crop Phytotoxicity (% Crop Injury), Mean over rates: 76%
